This passage reports microsomal CLint results from patent publication US20240182460A1, “ALLOSTERIC CHROMENONE INHIBITORS OF PHOSPHOINOSITIDE 3-KINASE (PI3K) FOR THE TREATMENT OF DISEASE” (PETRA PHARMA CORPORATION, priority 2022, published 2024).

The structures appear in SMILES notation. Where two headings read alike, the source gives them in different places.

This data set is described as follows: Metabolic stability and intrinsic clearance in human liver microsomes (MICS). It is filed as in vitro ADME. The settings on record: pH 7.4. Put shortly: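 Parent depletion by LC-MS/MS, run in duplicate, gave in vitro t1/2 from the slope of ln(% remaining) versus time, converted to CLint (μL/min/mg protein). Incubations: 1 μM compound, microsomes at 0.5 mg/mL, pH 7.4 phosphate, 37° C, ±1 mM NADPH, timepoints 0.5, 5, 15, 30, 60 min.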

With `Cc1cc([C@@H](C)Oc2ccc(Cl)nc2C(N)=O)c2oc(-c3cc(F)c4nn(C)cc4c3)c(C)c(=O)c2c1` [Example 17B, 6-Chloro-3-[(1R)-1-[2-(7-fluoro-2-methyl-indazol-5-yl)-3,6-dimethyl-4-oxo-chromen-8-yl]ethoxy]pyridine-2-carboxamide], the microsomal CLint at 1 μM (human, microsomes) was below 50 µL/min/mg.

Where the note is “human, microsomes”, `Cc1cc([C@@H](C)Oc2ccc(Cl)nc2-c2noc(=O)[nH]2)c2oc(-c3ccc4c(c3)OC(F)(F)O4)c(C)c(=O)c2c1` [Example 46A, 3-[6-Chloro-3-[(1R)-1-[2-(2,2-difluoro-1,3-benzodioxol-5-yl)-3,6-dimethyl-4-oxo-chromen-8-yl]ethoxy]-2-pyridyl]-4H-1,2,4-oxadiazol-5-one] returned a microsomal CLint at 1 μM below 50 µL/min/mg. Compound `CC(=O)Nc1ccc(-c2oc3c([C@@H](C)Oc4ccc(Cl)nc4C(N)=O)cc(C)cc3c(=O)c2C)cc1` [Example 58C, 3-[(1R)-1-[2-(4-Acetamidophenyl)-3,6-dimethyl-4-oxo-chromen-8-yl]ethoxy]-6-chloro-pyridine-2-carboxamide] gave a microsomal CLint at 1 μM (human, microsomes) below 50 µL/min/mg. Still for that read-out and setting: the result for `Cc1cc([C@@H](C)Oc2ccc(Br)nc2C(N)=O)c2oc(-c3ccc4nn(C)cc4c3)c(C)c(=O)c2c1` [Example 81C, 6-Bromo-3-[(1R)-1-[3,6-dimethyl-2-(2-methylindazol-5-yl)-4-oxo-chromen-8-yl]ethoxy]pyridine-2-carboxamide] reads below 50 µL/min/mg. Regarding `Cc1cc([C@@H](C)Oc2ccc(Cl)nc2NS(C)(=O)=O)c2oc(-c3cnn(C)c3)c(C)c(=O)c2c1` [Example 149A, N-[6-Chloro-3-[(1R)-1-[3,6-dimethyl-2-(1-methylpyrazol-4-yl)-4-oxo-chromen-8-yl]ethoxy]-2-pyridyl]methanesulfonamide], the microsomal CLint at 1 μM (human liver microsomes 0.5 mg/mL, 1 μM compound, read-out: intrinsic clearance in human MICS) is below 50 µL/min/mg.
